In patent publication US20160159774A1 (Celgene Avilomics Research, Inc., priority 2014, published 2016) one finds IC50 and EC50 data, which are given here for 20 compounds.

One experiment concerns the target T1, activated BTK enzyme (Homo sapiens, UniProt Q06187).
T1 construct: purchased Life Technologies PV3363
The experiment can be described thus: Omnia assay for potency assessment against BTK. It counts as biochemical. The following applies: BTK inhibition assay; [BTK]=5 nM, [ATP]=40 μM, [Y5-Sox]=10 μM. The text has this:
Omnia Assay Protocol for Potency Assessment Against BTK
The protocol below describes an assay to measure potency of compounds against the activated BTK enzyme. The mechanics of the assay platform are best described by the vendor (Life Technologies, Carlsbad, Calif.) on their website at the following URLs: www.lifetechnologies.com/us/en/home/life-science/drug-discovery/target-and-lead-identification-and-validation/kinasebiology/kinase-activity-assays/omnia-kinase-assays/omnia-kinase-principle.html and tools.lifetechnologies.com/content/sfs/manuals/omnia_kinase_assay_man.pdf
Briefly, 10× stocks of BTK (PV3363) from Life Technologies, 1.13×ATP (AS00lA) and Sox conjugated peptide substrates, Y5-Sox, (KZN305l) were prepared in 1× kinase reaction buffer consisting of 20 mM Tris, pH 7.5, 5 mM MgCl2, 1 mM EGTA, 5 mM (3-glycerophosphate, 5% glycerol (10× stock, KB002A) and 0.2 mM DTT (DS00lA). 5 μL of each enzyme were pre-incubated in a Corning (#3574) 384-well, white, non-binding surface microtiter plate (Corning, N.Y.) for 30 min. at room temperature with a 0.5 μL volume of 50% DMSO or serially diluted compounds prepared in 50% DMSO. Kinase reactions were started with the addition of […] of the ATP/Tyr-Sox peptide substrate Y5 mix and monitored every 71 seconds for 60 minutes at λex360/λem485 in a Synergy4 plate reader from BioTek (Winooski, Vt.). At the conclusion of each assay, progress curves from each well were examined for linear reaction kinetics and fit statistics (R2, 95% confidence interval, absolute sum of squares). Initial velocity (0 minutes to ˜30 minutes) from each reaction was determined from the slope of a plot of relative fluorescence units vs time (minutes) and then plotted against inhibitor concentration to estimate IC50 from log [Inhibitor] vs Response, Variable Slope model in GraphPad Prism from GraphPad Software (San Diego, Calif.).
Reagent conditions for the assay are:
[BTK]=5 nM, [ATP]=40 μM, [Y5-Sox]=10 μM (ATP KMapp˜36 μM).
The compound numbers correspond to the compound numbers in the examples.

Experiment [1] has as its target T2, BTK in Ramos human Burkitt lymphoma cells (Homo sapiens, UniProt Q06187).
T2 construct: Compounds of this invention were assayed in Ramos human Burkitt lymphoma cells; endogenous in cells; host or cells: Ramos human Burkitt lymphoma cells
Nature of the experiment: BTK Ramos cellular assay (BTK occupancy). The following applies: concentration producing 50% occupancy of BTK, 1 hour incubation with compound. It counts as cell-based. How it is done:
BTK activity in Ramos cells, in the presence of a compound of the invention, can be measured by 3 different methods: 1) inhibition of autophosphorylation of BTK; 2) inhibition of phosphorylation of the immediate BTK surrogate PLCγ2; and 3) BTK occupancy. […] In this instance, BTK occupancy was chosen and is described below.
Compounds of this invention were assayed in Ramos human Burkitt lymphoma cells. Ramos cells were grown in suspension in T175 flasks, spun down, resuspended to a concentration of 2×10^6 cells per mL in serum-free media and incubated for 1 hour. Compound was added to Ramos cells to a final concentration of 500, 166.7, 55.6, 18.5, 6.2, 2.1, and 0.7 nM. Ramos cells were incubated with compound for 1 hour, washed with PBS and lysed in 1004 of BioRad lysis Buffer. Cell lysates were incubated with a biotinylated covalent probe (compound 1-215 disclosed in U.S. published application number 2010/0029610, incorporated by reference in its entirety) at a final concentration of 1 μM in a PBS, 0.05% Tween-20, 1% BSA solution for 1 h at room temperature. Standards and samples were transferred to a streptavidin-coated 96-well ELISA plate and mixed while shaking for 1 h at room temperature. The α-Btk antibody (BD 611116, 1:1000 dilution in PBS+0.05% Tween-20+0.5% BSA) was then added and incubated for 1 h at room temperature. After wash, goat α-mouse-HRP (1:5000 dilution in PBS+0.05% Tween-20+0.5% BSA) was added and incubated for 1 h at room temperature. The ELISA was developed with addition of tetramethyl benzidine (TMB) followed by Stop Solution and read at OD 450 nm. The standard curve (11.7-3000 pg/μL) was generated with human full-length recombinant Btk protein and plotted using a 4 parameter curve fit in Gen5 software. Uninhibited Btk detected from samples was normalized to μg total protein as determined by BCA protein analysis (Pierce Cat. 23225).
The results of this assay show the concentration of compound producing 50% occupancy of BTK. This level of occupancy empirically translates to a level of 50% inhibition of BTK activity (both as measured by autophosphorylation and by phosphorylation of PLCγ2). […] The compound numbers correspond to the compound numbers in the examples.

T1 sequence (Q06187 whole entry): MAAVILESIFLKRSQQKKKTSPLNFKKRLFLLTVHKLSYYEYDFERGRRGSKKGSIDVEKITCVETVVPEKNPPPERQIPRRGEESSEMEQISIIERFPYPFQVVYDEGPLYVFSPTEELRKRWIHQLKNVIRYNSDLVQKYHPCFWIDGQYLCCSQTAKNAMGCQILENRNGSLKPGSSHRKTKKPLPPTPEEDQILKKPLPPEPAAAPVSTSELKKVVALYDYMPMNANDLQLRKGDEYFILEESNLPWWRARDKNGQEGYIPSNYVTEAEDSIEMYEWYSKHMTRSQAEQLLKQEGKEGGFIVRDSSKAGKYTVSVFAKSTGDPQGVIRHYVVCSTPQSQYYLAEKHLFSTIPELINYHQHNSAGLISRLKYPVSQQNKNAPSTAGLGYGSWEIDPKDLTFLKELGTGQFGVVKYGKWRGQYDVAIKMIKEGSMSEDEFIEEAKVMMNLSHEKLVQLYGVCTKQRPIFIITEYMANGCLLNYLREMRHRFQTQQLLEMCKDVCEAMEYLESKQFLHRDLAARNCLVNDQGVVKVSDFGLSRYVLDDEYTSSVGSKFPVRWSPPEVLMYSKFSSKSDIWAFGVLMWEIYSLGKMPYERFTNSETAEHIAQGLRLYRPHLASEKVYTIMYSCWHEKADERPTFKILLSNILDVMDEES
T2 sequence (Q06187 whole entry): as above

One may read the IC50 as the point on the concentration scale where inhibition reaches its midpoint. As a reminder, the EC50 is the midpoint of the concentration-response curve. Consider `C=CC(=O)N1CCC[C@@H](Nc2nc(Nc3ccc4c(c3)CCN(C3COC3)C4)ncc2F)C1` [Compound I-31, (R)-1-(3-(5-Fluoro-2-(2-(oxetan-3-yl)-1,2,3,4-tetrahydroisoquinolin-6-ylamino)-pyrimidin-4-ylamino)piperidin-1-yl)prop-2-en-1-one], for which, on activated BTK enzyme, the IC50 is less than 0.01 µM. Moreover, the EC50 in experiment [1] was less than 0.01 µM.

In the case of `C=CC(=O)N1CCC[C@@H](Nc2nc(Nc3ccc4c(c3)CN(C3CCC3)CC4)ncc2F)C1` [Compound I-46, (R)-1-(3-(2-(2-Cyclobutyl-1,2,3,4-tetrahydroisoquinolin-7-ylamino)-5-fluoropyrimidin-4-ylamino)piperidin-1-yl)prop-2-en-1-one], on activated BTK enzyme, the IC50 was less than 0.01 µM. Also, the EC50 in experiment [1] was less than 0.01 µM.

As to `C=CC(=O)N1CCC[C@@H](Nc2nc(Nc3ccc4c(c3)CN(C(C)(C)C)C4)ncc2F)C1` [Compound I-25, (R)-1-(3-((2-((2-(tert-butyl)isoindolin-5-yl)amino)-5-fluoropyrimidin-4-yl)amino)piperidin-1-yl)prop-2-en-1-one], the IC50 at activated BTK enzyme is less than 0.01 µM. Also, in experiment [1], the EC50 is less than 0.01 µM.

Turning to `C=CC(=O)N1CCC[C@@H](Nc2nc(Nc3ccc4c(c3)CN(CC3CCN(C)CC3)C4)ncc2F)C1` [Compound I-8], on activated BTK enzyme, the IC50 is less than 0.01 µM. The EC50 in experiment [1] is less than 0.01 µM.

On to `C=CC(=O)N1CCC[C@@H](Nc2nc(Nc3ccc4c(c3)CCN(C3CC3)C4)ncc2F)C1` [Compound I-44, (R)-1-(3-((2-((2-Cyclopropyl-1,2,3,4-tetrahydroisoquinolin-6-yl)amino)-5-fluoropyrimidin-4-yl)amino)piperidin-1-yl)prop-2-en-1-one], for which the IC50 on activated BTK enzyme was less than 0.01 µM. For the same compound, in experiment [1], the EC50 lay within 0.01 to 0.1 µM.

On to `C=CC(=O)N1CCC[C@@H](Nc2nc(Nc3ccc4c(c3)CNC4)ncc2F)C1` [Compound I-1, (R)-1-(3-((5-fluoro-2-(isoindolin-5-ylamino)pyrimidin-4-yl)amino)piperidin-1-yl)prop-2-en-1-one], for which the half-maximal inhibitory concentration (IC50) at activated BTK enzyme was less than 0.01 µM. The EC50 in experiment [1] fell in the range of 0.01 to 0.1 µM.

In the case of `C=CC(=O)N1CCC[C@@H](Nc2nc(Nc3ccc4c(c3)CCN(C(C)(C)C)C4)ncc2F)C1` [Compound I-45, (R)-1-(3-((2-((2-(tert-Butyl)-1,2,3,4-tetrahydroisoquinolin-6-yl)amino)-5-fluoropyrimidin-4-yl)amino)piperidin-1-yl)prop-2-en-1-one], the IC50 on activated BTK enzyme is less than 0.01 µM. Moreover, the EC50 in experiment [1] was less than 0.01 µM.

`C=CC(=O)N1CCC[C@@H](Nc2nc(Nc3ccc4c(c3)C(=O)N(C)C4)ncc2F)C1` [Compound I-62]: at activated BTK enzyme, the IC50 was less than 0.01 µM. Besides, the EC50 in experiment [1] was 0.101 to 1 µM.

As to `C=CC(=O)N1CCC[C@@H](Nc2nc(Nc3ccc4c(c3)CCN(CC3CC3)C4)ncc2F)C1` [Compound I-43, (R)-1-(3-((2-((2-(cyclopropylmethyl)-1,2,3,4-tetrahydroisoquinolin-6-yl)amino)-5-fluoropyrimidin-4-yl)amino)piperidin-1-yl)prop-2-en-1-one], the IC50 on activated BTK enzyme is less than 0.01 µM. Further, the EC50 in experiment [1] is less than 0.01 µM.

On to `C=CC(=O)N1CCC[C@@H](Nc2nc(Nc3ccc4c(c3)C(C)(C)N(C)C4(C)C)ncc2F)C1` [Compound I-41, (R)-1-(3-(5-Fluoro-2-(1,1,2,3,3-pentamethylisoindolin-5-ylamino)pyrimidin-4-ylamino)piperidin-1-yl)prop-2-en-1-one], for which, on activated BTK enzyme, the IC50 was less than 0.01 µM. Further, the EC50 in experiment [1] is 0.01 to 0.1 µM.

As for `C=CC(=O)N1CCC[C@@H](Nc2nc(Nc3ccc4c(c3)CN(C3CC3)C4)ncc2F)C1` [Compound I-21, (R)-1-(3-((2-((2-cyclopropylisoindolin-5-yl)amino)-5-fluoropyrimidin-4-yl)amino)piperidin-1-yl)prop-2-en-1-one], the IC50 at activated BTK enzyme was less than 0.01 µM. Moreover, the EC50 in experiment [1] fell in the range of 0.01 to 0.1 µM.

Consider `C=CC(=O)N1CCC[C@@H](Nc2nc(Nc3ccc4c(c3)CCCN(C3CC3)C4)ncc2F)C1` [Compound I-51, (R)-1-(3-((2-((2-Cyclopropyl-2,3,4,5-tetrahydro-1H-benzo[c]azepin-7-yl)amino)-5-fluoropyrimidin-4-yl)amino)piperidin-1-yl)prop-2-en-1-one], for which, on activated BTK enzyme, the IC50 was less than 0.01 µM. Moreover, the half-maximal effective concentration (EC50) in experiment [1] was in the range of 0.01 to 0.1 µM.

On to `C=CC(=O)N1CCC[C@@H](Nc2nc(Nc3ccc4c(c3)CN(CC3COC3)CC4)ncc2F)C1` [Compound I-36, (R)-1-(3-(5-Fluoro-2-(2-(oxetan-3-ylmethyl)-1,2,3,4-tetrahydroisoquinolin-7-ylamino)pyrimidin-4-ylamino)piperidin-1-yl)prop-2-en-1-one], for which, at activated BTK enzyme, the IC50 is less than 0.01 µM. For the same compound, the EC50 in experiment [1] was less than 0.01 µM.

For `C=CC(=O)N1CCC[C@@H](Nc2nc(Nc3ccc4c(c3)CN(C)C4)ncc2C(F)(F)F)C1` [Compound I-64, (R)-1-(3-((2-((2-Methylisoindolin-5-yl)amino)-5-(trifluoromethyl)pyrimidin-4-yl)amino)piperidin-1-yl)prop-2-en-1-one], on activated BTK enzyme, the IC50 is less than 0.01 µM. Also, in experiment [1], the EC50 was less than 0.01 µM.

In the case of `C=CC(=O)N1CCC[C@@H](Nc2nc(Nc3ccc4c(c3)CCCN(C)C4)ncc2F)C1` [Compound I-38, (R)-1-(3-((5-Fluoro-2-((2-methyl-2,3,4,5-tetrahydro-1H-benzo[c]azepin-7-yl)amino)pyrimidin-4-yl)amino)piperidin-1-yl)prop-2-en-1-one], the IC50 at activated BTK enzyme is less than 0.01 µM. For the same compound, the EC50 in experiment [1] was less than 0.01 µM.

`C=CC(=O)N1CCC[C@@H](Nc2nc(Nc3ccc4c(c3)CN(CCOC)C4)ncc2F)C1` [Compound I-4, (R)-1-(3-((5-Fluoro-2-((2-(2-methoxyethyl)isoindolin-5-yl)amino)pyrimidin-4-yl)amino)piperidin-1-yl)prop-2-en-1-one]: the IC50 at activated BTK enzyme was less than 0.01 µM. Moreover, the 50% effective concentration (EC50) in experiment [1] lay in the range of 0.01 to 0.1 µM.

`C=CC(=O)N1CCC[C@@H](Nc2nc(Nc3ccc4c(c3)CN(CC(N)=O)C4)ncc2F)C1` [Compound I-16]: the concentration for half-maximal inhibition (IC50) at activated BTK enzyme was less than 0.01 µM. The EC50 in experiment [1] was less than 0.01 µM.

For `C=CC(=O)N1CCC[C@@H](Nc2nc(Nc3ccc4c(c3)CCCN(C)C4=O)ncc2F)C1` [Compound I-52, (R)-7-((4-((1-Acryloylpiperidin-3-yl)amino)-5-fluoropyrimidin-2-yl)amino)-2-methyl-2,3,4,5-tetrahydro-1H-benzo[c]azepin-1-one], the half-inhibitory concentration (IC50) at activated BTK enzyme is less than 0.01 µM. In experiment [1], the concentration giving a half-maximal response (EC50) lay in the range of 0.01 to 0.1 µM.

Regarding `C=CC(=O)N1CCC[C@@H](Nc2nc(Nc3ccc4c(c3)CCN(C(C)=O)C4)ncc2F)C1` [Compound I-30, (R)-1-(3-((2-((2-Acetyl-1,2,3,4-tetrahydroisoquinolin-6-yl)amino)-5-fluoro-pyrimidin-4-yl)amino)piperidin-1-yl)prop-2-en-1-one], the IC50 at activated BTK enzyme was less than 0.01 µM. The EC50 in experiment [1] was 0.01 to 0.1 µM.

Regarding `C=CC(=O)N1CCC[C@@H](Nc2nc(Nc3ccc4c(c3)CN(C3COC3)CC4)ncc2F)C1` [Compound I-35, (R)-1-(3-(5-Fluoro-2-(2-(oxetan-3-yl)-1,2,3,4-tetrahydroisoquinolin-7-ylamino)-pyrimidin-4-ylamino)piperidin-1-yl)prop-2-en-1-one], the IC50 on activated BTK enzyme is less than 0.01 µM. The EC50 in experiment [1] is less than 0.01 µM.
